# Target: T1, Protoporphyrinogen oxidase (Bacillus subtilis (strain 168), UniProt P32397)
# T1 sequence (P32397 whole entry): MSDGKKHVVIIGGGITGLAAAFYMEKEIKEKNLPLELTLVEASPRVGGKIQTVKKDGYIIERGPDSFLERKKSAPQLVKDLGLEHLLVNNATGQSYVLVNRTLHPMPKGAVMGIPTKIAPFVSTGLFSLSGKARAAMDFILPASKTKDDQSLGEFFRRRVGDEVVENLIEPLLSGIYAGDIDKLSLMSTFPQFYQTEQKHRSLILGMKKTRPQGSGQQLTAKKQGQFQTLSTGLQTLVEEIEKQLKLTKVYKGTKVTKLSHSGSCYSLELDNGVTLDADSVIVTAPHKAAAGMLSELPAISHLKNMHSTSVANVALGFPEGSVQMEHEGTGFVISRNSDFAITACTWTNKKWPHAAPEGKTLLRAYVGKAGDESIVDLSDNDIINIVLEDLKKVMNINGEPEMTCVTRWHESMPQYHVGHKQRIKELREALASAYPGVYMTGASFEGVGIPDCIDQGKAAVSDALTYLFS
# Assay: Inhibition of Bacillus subtilis Protoporphyrinogen oxidase by capillary electrophoresis
row,Ki,SMILES
1,1020 nM,N#CCN1C(=O)COc2cc(F)c(N3C(=O)c4ccccc4C3=O)cc21
2,8.32 nM,O=C(NC(=O)c1c(F)cccc1Cl)Nc1cc(N2C(=O)C3=C(CCCC3)C2=O)c(F)cc1Cl
3,33.9 nM,O=C(NC(=O)c1cccc(OC(F)(F)F)c1)Nc1cc(N2C(=O)C3=C(CCCC3)C2=O)c(F)cc1Cl
4,28.2 nM,O=C(Nc1ccc(Cl)cc1)Nc1cc(N2C(=O)C3=C(CCCC3)C2=O)c(F)cc1Cl
5,12.9 nM,O=C(NC(=O)c1c(Cl)cccc1Cl)Nc1cc(N2C(=O)C3=C(CCCC3)C2=O)c(F)cc1Cl
6,372 nM,CNC(=O)Nc1cc(N2C(=O)C3=C(CCCC3)C2=O)c(F)cc1Cl
7,110 nM,CCOC(=O)C(C)N1C(=O)C(C)Oc2cc(F)c(N3C(=O)C4=C(CCCC4)C3=O)cc21 (stereo not given)
8,871 nM,CC(C)(CCl)C(=O)Nc1cc(N2C(=O)C3=C(CCCC3)C2=O)c(F)cc1Cl
9,49 nM,COC(=O)C(C)N1C(=O)C(C)Oc2cc(F)c(N3C(=O)C4=C(CCCC4)C3=O)cc21 (stereo not given)
10,6170 nM,O=C(NC(=O)c1ccccc1)Nc1cc(N2C(=O)C3=C(CCCC3)C2=O)ccc1Cl
11,26.9 nM,O=C(NC(=O)c1ccc(Cl)cc1Cl)Nc1cc(N2C(=O)C3=C(CCCC3)C2=O)c(F)cc1Cl
12,3310 nM,C#CCN1C(=O)COc2cc(F)c(N3C(=O)c4ccccc4C3=O)cc21
13,288 nM,CCCN(CCC)C(=O)Nc1cc(N2C(=O)C3=C(CCCC3)C2=O)ccc1Cl
14,60.3 nM,CCOC(=O)CN1C(=O)C(C)Oc2cc(F)c(N3C(=O)C4=C(CCCC4)C3=O)cc21 (stereo not given)
15,91.2 nM,CCOC(=O)C(c1ccccc1)N1C(=O)C(C)Oc2cc(F)c(N3C(=O)C4=C(CCCC4)C3=O)cc21 (stereo not given)
16,229 nM,CC(C)N(C(=O)Nc1cc(N2C(=O)C3=C(CCCC3)C2=O)c(F)cc1Cl)C(C)C
17,2820 nM,C#CCN1C(=O)COc2cc(F)c(N3C(=O)c4ccc(C)cc4C3=O)cc21
18,89.1 nM,O=C(NC(=O)c1ccccc1)Nc1cc(N2C(=O)C3=C(CCCC3)C2=O)c(F)cc1Cl

row,SMILES,Ki
1,CCOC(=O)C(CC)N1C(=O)COc2cc(F)c(N3C(=O)C4=C(CCCC4)C3=O)cc21 (stereo not given),44.7 nM
2,COC(=O)CN1C(=O)C(C)Oc2cc(F)c(N3C(=O)C4=C(CCCC4)C3=O)cc21 (stereo not given),39.8 nM
3,CCOC(=O)C(C)N1C(=O)COc2cc(F)c(N3C(=O)C4=C(CCCC4)C3=O)cc21 (stereo not given),120 nM
4,C#CCN1C(=O)C(C)Oc2cc(F)c(N3C(=O)c4ccc(C)cc4C3=O)cc21 (stereo not given),4790 nM
5,CCC(C(=O)OC)N1C(=O)COc2cc(F)c(N3C(=O)C4=C(CCCC4)C3=O)cc21 (stereo not given),8.13 nM
6,O=C(Nc1cccc(C(F)(F)F)c1)Nc1cc(N2C(=O)C3=C(CCCC3)C2=O)c(F)cc1Cl,25.1 nM
7,C#CCN1C(=O)C(C)Oc2cc(F)c(N3C(=O)c4cccc(F)c4C3=O)cc21 (stereo not given),5010 nM
